Experimental data reported in US6864093B1, “Method of identifying and treating invasive carcinomas” (University of Central Florida, priority 2000, dated 2005).

Experiments:
Assay type in all cases: cell-based, human
[1] = tested on: prostasin gene promoter (MDA-MB-435s cells); assay: demethylation of prostasin gene promoter, genomic Southern blot; conditions: 500 nM, 8 days
Text: (§1) High molecular weight genomic DNA was isolated from various cell lines as described in Chai, K X, Ward, D C, Chao, J, et al Molecular Clonings Sequence Analysis and Chromosomal Localization of the Human Protease Inhibitor 4 (kallistatin) gene (P14) Genomics 1994; 23:370-8. Genomic DNA frm each cell line was digested with the following restriction enzyme combinations:Xho I/BamH I (X/B), Xho I/BamH I/Hha (X/B/Hh), Xho I/BamH I/Aci I (X/B/A), Xho I/Bam H I.Bsa I (X/B/Bs),Xho I/Bam H I/Msp I(X/B/M) or Xho I/Bam H I/Hpa II(X/B/H) using 10 μg of DNA per digestion combination. The X/B cutting sites flank the CpG sies be to be investigated for differential methylation by the methylation-sensitive restriction endonucleases. The digests were resolved in a 0.8% agarose gel and analyzed by Southern blot hybridization as described in Chai, K X, Ward, D C, Chao, J et al. A nick translated prostasin promoter probe (bases 703-1,649) of the prostasin gene sequence, Genbank accession number U33446) was used for the hybridization. The base numbering of the prostasin gene sequence was described in Yu et al. […]

[2] = tested on: prostasin gene promoter (DU-145 cells); assay: as above; conditions: DU-145, 8 days
Text: as §1

[3] = tested on: prostasin gene promoter (PC-3 cells); assay: as above; conditions: PC-3, 8 days
Text: as §1

[4] = tested on: prostasin mRNA (MDA-MB-231 cells); assay: reactivation of prostasin expression, RT-PCR/Southern blot; conditions: MDA-MB-231, 500 nM 5-aza-2′-dC 24 hr followed by 95% ethanol (solvent for TSA)
Procedure: (§2) Cells grown to 80% confluence (in […] tissue culture dish) were lysed directly with 1 ml of the Trizol Reagent (life Technologies) and RNA was isolated according to the manufacturer's protocol. The human prostasin-specific RT-PCR/Southern blot analysis was performed as described in Yu, J X, and Chao,J Molecular Cloning, tissue-specific expression and cellular localization of human prostasin mRNA. J Biol Chem 1995; 270:12483-4. One microgram of total RNA was used in the RT-PCR with 2 human prostasin gene-specific oligonucleotide primers, and a Southern blot of the resolved RT-PCR samples was probed with a third prostasin gene-specific oligonucleotide, detecting an amplified 232 bp fragment. A co-amplification of the β-actin mRNA for control of RNA quality and quantity was performed as described in Chen Hodge and Guarda, et al.
(§3) For demethylation of prostasin gene promoter, MDA-MB-231 and MDA-MB-435s cells were seeded in 100 mm dishes at an initial density of 50% confluence and cultured in the presence of 500 nM 5-aza-2′-deoxycytidine (5-aza-2′dC; Sigma-Aldrich) for 8 days with renewal of medium and 5-aza-2′-dC performed at 2 day intervals. Genomic DNA was then isolated for Southern blot analysis as described. For reactivation of prostasin expression, MDA-MB-231 and MDA-MB-435s cells were seeded in 60 mm dishes at 80% confluence and cultured in the presence of 500 nM 5-aza-2′-dC for 24 hr, and were then treated for an additional 24 hr with either 1 μM trichostatin A (TSA; Sigma Aldrich) or an equal volume of 95% ethanol used to dissolve TSA. For measuring time-dependence of prostatin gene reactivation, cells were treated as described above but were harvested at 6 or 12 hr after the addition of TSA. RNA was isolated for prostasin-specifric RT-PCR/Southern blot analysis as described. The MCF-7 and the MDA-MB-453 cell ines were subjected tot the same 5-aza-2′-dC/TSA treatment and prostasin RT-PCR Southern blot analysis procedures.

[5] = tested on: prostasin mRNA (MDA-MB-435s cells); assay: as above
Procedure: as §2, §3

[6] = tested on: prostasin mRNA (DU-145 cells); assay: as above; conditions: DU-145, after 8 days 5-aza-2′-dC
Procedure: as §2
(§4) Du-145 and […] an additional 24 hours with either 1 μM trichostatin A (TSA, Sigma-Aldrich Co.) or an equal volume of 95% ethanol used to dissolve TSA. TNA was isolated for prostasin-specific RT-PCR/Southern blot analysis as described in example 1.

[7] = tested on: prostasin mRNA (PC-3 cells); assay: as above; conditions: PC-3, after 8 days 5-aza-2′-dC
Procedure: as §2, §4

Nc1ncn([C@H]2C[C@H](O)[C@@H](CO)O2)c(=O)n1 [5-aza-2′-dC, 5-aza-2′-deoxycytidine]
demethylation of prostasin promoter-exon 1 region [1]: significant level of demethylation
demethylation of prostasin promoter [2]: significant level of demethylation
demethylation of prostasin promoter [3]: significant level of demethylation
prostasin mRNA re-expression [4]: did not result in prostasin mRNA re-expression
prostasin mRNA re-expression ([5]; 500 nM 5-aza-2′-dC 24 hr followed by 95% ethanol (solvent for TSA)): did not result in prostasin mRNA re-expression
prostasin mRNA expression ([5]; after 8-day 5-aza-2′-dC treatment): failed to detect prostasin mRNA expression
prostasin mRNA expression [6]: no prostasin mRNA expression was detected
prostasin mRNA expression [7]: no prostasin mRNA expression was detected
